This passage reports IC50 results from US20230181536A1, “ANTICANCER COMBINATION THERAPY WITH N-(1-ACRYLOYL-AZETIDIN-3-YL)-2-((1H-INDAZOL-3-YL)AMINO)METHYL)-1H-IMIDAZOLE-5-CARBOXAMIDE INHIBITOR OF KRAS-G12C” (TAIHO PHARMACEUTICAL CO., LTD., priority 2020, published 2023).

A word on the IC50: it is the concentration needed to halve the response being measured.

The test concerns the target T1, KRAS G12C (Homo sapiens, UniProt P01116, G12C).
T1 construct: KRAS G12C (amino acid region: 1-169)
In words: Inhibitory activity on the KRAS G12C nucleotide (GDP-GTP) exchange reaction. To be noted: Bodipy FL GDP-bound KRAS G12C 25 nM; preincubation at 25° C. for 4 hours; SOS1 100 nM, GppNHp 1 μM, reaction for 30 minutes. Format: biochemical. The gist of the method:
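Bodipy FL-GDP-loaded KRAS G12C (aa 1-169, 25 nM) preincubated with compound 4 h at 25 °C in pH 7.5 Tris buffer, 5% DMSO; exchange started with SOS1 (aa 564-1049, 100 nM) and 1 μM GppNHp for 30 min. Fluorescence change (ex 485/em 520 nm) normalized to DMSO and no-GppNHp controls; IC50 calculated.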

T1 sequence (P01116 1-169 isoform P01116-2 G12C): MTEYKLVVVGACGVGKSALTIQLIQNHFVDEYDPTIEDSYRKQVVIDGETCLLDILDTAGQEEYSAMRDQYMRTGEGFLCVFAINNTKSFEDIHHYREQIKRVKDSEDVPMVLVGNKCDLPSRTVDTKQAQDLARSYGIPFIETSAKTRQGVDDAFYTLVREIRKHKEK

`C=CC(=O)N1CC(NC(=O)c2c(Cl)nc(CNc3n[nH]c4cc(Cl)c(C(C)(C)C)cc34)n2C2CCCC2)C1` [Example 105, N-(1-acryloylazetidin-3-yl)-2-(((5-(tert-butyl)-6-chloro-1H-indazol-3-yl)amino)methyl)-4-chloro-1-cyclopentyl-1H-imidazole-5-carboxamide] had a half-maximal inhibitory concentration (IC50) of 8 nM.

`C=CC(=O)N1CC(NC(=O)c2c(Cl)nc(CNc3n[nH]c4cc(Cl)c(C(C)(C)C)cc34)n2C2CN(C(=O)OC(C)(C)C)C2)C1` [Example 106, Tert-butyl 3-(5-((1-acryloylazetidin-3-yl)carbamoyl)-2-(((5-(tert-butyl)-6-chloro-1H-indazol-3-yl)amino)methyl)-4-chloro-1H-imidazol-1-yl)azetidine-1-carboxylate] had an IC50 of 8 nM.

In turn, `C=CC(=O)N1CC(NC(=O)c2c(Cl)nc(CNc3n[nH]c4cc(Cl)c(C(C)(C)C)cc34)n2C2CN(C(C)C)C2)C1` [Example 107, N-(1-acryloylazetidin-3-yl)-2-(((5-(tert-butyl)-6-chloro-1H-indazol-3-yl)amino)methyl)-4-chloro-1-(1-isopropylazetidin-3-yl)-1H-imidazole-5-carboxamide] gave an IC50 of 4 nM.

Turning to `C=CC(=O)N1CC(NC(=O)c2c(Cl)nc(CNc3n[nH]c4cc(Cl)c(C(C)(C)C)cc34)n2C2CN(C(C)=O)C2)C1` [Example 108, 1-(1-acetylazetidin-3-yl)-N-(1-acryloylazetidin-3-yl)-2-(((5-(tert-butyl)-6-chloro-1H-indazol-3-yl)amino)methyl)-4-chloro-1H-imidazole-5-carboxamide], the IC50 came to 9 nM.

Consider `C=CC(=O)N1CC(NC(=O)c2c(Cl)nc(CNc3n[nH]c4cc(Cl)c(C(C)(C)C)cc34)n2C2CCCCC2)C1` [Example 109, N-(1-acryloylazetidin-3-yl)-2-(((5-(tert-butyl)-6-chloro-1H-indazol-3-yl)amino)methyl)-4-chloro-1-cyclohexyl-1H-imidazole-5-carboxamide], for which the 50% inhibitory concentration (IC50) is 23 nM.

Turning to `C=CC(=O)N1CC(NC(=O)c2c(Cl)nc(CNc3n[nH]c4cc(Cl)c(C(C)(C)C)cc34)n2CC2CCCC2)C1` [Example 110, N-(1-acryloylazetidin-3-yl)-2-(((5-(tert-butyl)-6-chloro-1H-indazol-3-yl)amino)methyl)-4-chloro-1-(cyclopentylmethyl)-1H-imidazole-5-carboxamide], it took 9 nM to reach half-maximal inhibition (IC50).

With `C=CC(=O)N1CC(NC(=O)c2c(Cl)nc(CNc3n[nH]c4cc(Cl)c(C(C)(C)C)cc34)n2[C@H]2C[C@H](C)CC[C@H]2C(C)C)C1` [Example 111, N-(1-acryloylazetidin-3-yl)-2-(((5-(tert-butyl)-6-chloro-1H-indazol-3-yl)amino)methyl)-4-chloro-1-((1S,2S,5R)-2-isopropyl-5-methylcyclohexyl)-JH-imidazole-5-carboxamide], the IC50 was 15 nM.

As for `C=CC(=O)N1CC(NC(=O)c2c(Cl)nc(CNc3n[nH]c4cc(Cl)c(C(C)(C)C)cc34)n2[C@@H]2CCN(C(C)C)C2)C1` [Example 114, (R)-N-(1-acryloylazetidin-3-yl)-2-(((5-(tert-butyl)-6-chloro-1H-indazol-3-yl)amino)methyl)-4-chloro-1-(1-isopropylpyrrolidin-3-yl)-1H-imidazole-5-carboxamide], it took 7 nM to reach half-maximal inhibition (IC50).

As for `C=CC(=O)N1CC(NC(=O)c2c(Cl)nc(CNc3n[nH]c4cc(Cl)c(C(C)(C)C)cc34)n2[C@H]2CCN(C(C)C)C2)C1` [Example 116, (S)-N-(1-acryloylazetidin-3-yl)-2-(((5-(tert-butyl)-6-chloro-1H-indazol-3-yl)amino)methyl)-4-chloro-1-(1-isopropylpyrrolidin-3-yl)-1H-imidazole-5-carboxamide], the IC50 stood at 8 nM.

The molecule `C=CC(=O)N1CC(NC(=O)c2c(Cl)nc(CNc3n[nH]c4cc(Cl)c(C(C)(C)C)cc34)n2C2CCCN(CC(F)F)C2)C1` (stereo not shown) [Example 117, N-(1-acryloylazetidin-3-yl)-2-(((5-(tert-butyl)-6-chloro-1H-indazol-3-yl)amino)methyl)-4-chloro-1-(1-(2,2-difluoroethyl)piperidin-3-yl)-1H-imidazole-5-carboxamide] had an IC50 of 9 nM.

Consider `C=CC(=O)N1CC(NC(=O)c2c(Cl)nc(CNc3n[nH]c4cc(Cl)c(C(C)(C)C)cc34)n2C2CCCN(C)C2)C1` (stereo not shown) [Example 118, N-(1-acryloylazetidin-3-yl)-2-(((5-(tert-butyl)-6-chloro-1H-indazol-3-yl)amino)methyl)-4-chloro-1-(1-methylpiperidin-3-yl)-1H-imidazole-5-carboxamide], for which the midpoint of inhibition, the IC50, lay at 5 nM.

The molecule `C=CC(=O)N1CC(NC(=O)c2c(Cl)nc(CNc3n[nH]c4cc(Cl)c(C(C)(C)C)cc34)n2[C@@H]2CCN(CCOC)C2)C1` [Example 119, (R)-N-(1-acryloylazetidin-3-yl)-2-(((5-(tert-butyl)-6-chloro-1H-indazol-3-yl)amino)methyl)-4-chloro-1-(1-(2-methoxyethyl)pyrrolidin-3-yl)-1H-imidazole-5-carboxamide] yielded an IC50 of 11 nM.

The molecule `C=CC(=O)N1CC(NC(=O)c2c(Cl)nc(CNc3n[nH]c4cc(Cl)c(C(C)(C)C)cc34)n2[C@@H]2CCN(C3CC3)C2)C1` [Example 120, (R)-N-(1-acryloylazetidin-3-yl)-2-(((5-(tert-butyl)-6-chloro-1H-indazol-3-yl)amino)methyl)-4-chloro-1-(1-cyclopropylpyrrolidin-3-yl)-1H-imidazole-5-carboxamide] yielded an IC50 of 6 nM.

On to `C=CC(=O)N1CC(NC(=O)c2c(Cl)nc(CNc3n[nH]c4cc(Cl)c(C(C)(C)C)cc34)n2[C@@H]2CCN(C3COC3)C2)C1` [Example 121, (R)-N-(1-acryloylazetidin-3-yl)-2-(((5-(tert-butyl)-6-chloro-1H-indazol-3-yl)amino)methyl)-4-chloro-1-(1-(oxetan-3-yl)pyrrolidin-3-yl)-1H-imidazole-5-carboxamide], for which the concentration for half-maximal inhibition (IC50) was found to be 5 nM.

Turning to `C=CC(=O)N1CC(NC(=O)c2c(Cl)nc(CNc3n[nH]c4cc(Cl)c(C(C)(C)C)cc34)n2[C@@H]2CCN(Cc3ccccc3)C2)C1` [Example 122, (R)-N-(1-acryloylazetidin-3-yl)-1-(1-benzylpyrrolidin-3-yl)-2-(((5-(tert-butyl)-6-chloro-1H-indazol-3-yl)amino)methyl)-4-chloro-1H-imidazole-5-carboxamide], the concentration for half-maximal inhibition (IC50) is 6 nM.

Molecule `C=CCN1CC[C@@H](n2c(CNc3n[nH]c4cc(Cl)c(C(C)(C)C)cc34)nc(Cl)c2C(=O)NC2CN(C(=O)C=C)C2)C1` [Example 123, (R)-N-(1-acryloylazetidin-3-yl)-1-(1-allylpyrrolidin-3-yl)-2-(((5-(tert-butyl)-6-chloro-1H-indazol-3-yl)amino)methyl)-4-chloro-1H-imidazole-5-carboxamide] came in with an IC50 of 9 nM.

`C=CC(=O)N1CC(NC(=O)c2c(Cl)nc(CNc3n[nH]c4cc(Cl)c(C(C)(C)C)cc34)n2[C@@H]2CCN(c3ccccn3)C2)C1` [Example 124, (R)-N-(1-acryloylazetidin-3-yl)-2-(((5-(tert-butyl)-6-chloro-1H-indazol-3-yl)amino)methyl)-4-chloro-1-(1-(pyridin-2-yl)pyrrolidin-3-yl)-1H-imidazole-5-carboxamide] showed an IC50 of 6 nM.

With `C=CC(=O)N1CC(NC(=O)c2c(Cl)nc(CNc3n[nH]c4cc(Cl)c(C(C)(C)C)cc34)n2[C@@H]2CCN(CC(F)F)[C@H]2C)C1` [Example 125, N-(1-acryloylazetidin-3-yl)-2-(((5-(tert-butyl)-6-chloro-1H-indazol-3-yl)amino)methyl)-4-chloro-1-((2S,3R)-1-(2,2-difluoroethyl)-2-methylpyrrolidin-3-yl)-1H-imidazole-5-carboxamide], the 50% inhibitory concentration (IC50) came out at 13 nM.

As to `C=CC(=O)N1CC(NC(=O)c2c(Cl)nc(CNc3n[nH]c4cc(Cl)c(C(C)(C)C)cc34)n2[C@@H]2C[C@@H](C)N(CC(F)F)C2)C1` [Example 126, N-(1-acryloylazetidin-3-yl)-2-(((5-(tert-butyl)-6-chloro-1H-indazol-3-yl)amino)methyl)-4-chloro-1-((3R,5R)-1-(2,2-difluoroethyl)-5-methylpyrrolidin-3-yl)-1H-imidazole-5-carboxamide], the IC50 was 4 nM.
